PubChem BioAssay (NCI)
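Dose response: 5 concentrations. Exposure: 48 h. Format: 96-well plates. Endpoint: linear interpolation; highest concentration if not reached. GI50 = concentration required for 50% inhibition of growth. TGI is the concentration that stops growth completely.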

How the values were obtained:
Assay in all cases: inhibition of tumour cell growth, NCI panel, 48 h
MDA-MB-231 breast = system: MDA-MB-231 breast
ACHN renal = system: ACHN renal
MOLT-4 leukemia = system: MOLT-4 leukemia
HT29 colon = system: HT29 colon
SNB-75 CNS = system: SNB-75 CNS
EKVX NSCLC = system: EKVX NSCLC
HL-60(TB) leukemia = system: HL-60(TB) leukemia
T-47D breast = system: T-47D breast
SR leukemia = system: SR leukemia
HOP-62 NSCLC = system: HOP-62 NSCLC

Row | SMILES | TGI (MDA-MB-231 breast) [µM] | TGI (ACHN renal) [µM] | TGI (MOLT-4 leukemia) [µM] | TGI (HT29 colon) [µM] | TGI (SNB-75 CNS) [µM] | TGI (EKVX NSCLC) [µM] | TGI (HL-60(TB) leukemia) [µM] | TGI (T-47D breast) [µM] | TGI (SR leukemia) [µM] | TGI (HOP-62 NSCLC) [µM] | GI50 (MOLT-4 leukemia) [µM]
1 | Cc1ccsc1C(=S)Nc1ccc(Cl)c(C(=O)OC(C(C)C)C(C)C)c1 | 71.3 | > 100 | 55.6 | 71.6 | 95.3 | > 100 | 31.5 | > 100 | – | – | –
2 | COP(=O)(CC(=O)C1OC(OCc2ccccc2)C(OCc2ccccc2)C(OCc2ccccc2)C1OCc1ccccc1)OC (centres undefined) | 61.1 | 23.2 | > 100 | 24.2 | 92.3 | 50.4 | 23.7 | 41.9 | 21.4 | > 100 | –
3 | COc1cc(OC)c(C2c3cc4c(cc3OC(N3CCOCC3)C2C)OCO4)c(OC)c1 (centres undefined) | – | 82.4 | > 100 | > 100 | 93.2 | > 100 | – | > 100 | > 100 | > 100 | –
4 | COc1cc2c(cc1OCCCOc1cc3c(cc1OC)C(=O)N1CCC[C@H]1CN3)N=C[C@@H]1CCCN1C2=O | 16.6 | 0.359 | 0.148 | 13.7 | 2.89 | > 49 | 0.68 | > 100 | 0.0265 | 0.892 | –
5 | CN1c2ccccc2C(=O)NC12CCN(CC1COc3ccccc3O1)CC2 (centres undefined) | – | > 100 | 77.1 | > 100 | > 100 | > 100 | > 100 | 98.8 | > 100 | > 100 | –
6 | O=C(c1ccccc1)[C@H]1Nc2cnccc2C2c3ccccc3CC21 (some centres undefined) | – | 37.1 | 23.1 | 50.5 | 71.9 | 71 | 23.2 | – | 61.6 | > 71.4 | –
7 | FC(F)=C(c1ccc(-c2ccc(Cl)cc2)cc1)C(F)(F)F | 46.3 | 31.1 | > 100 | 67.4 | 25.6 | 41.5 | > 100 | 76.8 | 52.4 | – | –
8 | CCN(C(=O)N[C@H](C(=O)N[C@@H](C)C(=O)OC)C(C)C)c1ccccc1 | > 100 | > 100 | > 100 | > 100 | > 100 | > 100 | > 100 | > 100 | > 100 | > 100 | –
9 | Cc1ccc2c(c1)C(=O)/C(=C\c1ccc(Cl)cc1)CCS2(=O)=O | 9.41 | 3.83 | 9.79 | 6.54 | 18.4 | 25.3 | 5.26 | 9.4 | 5.55 | > 47.2 | –
10 | CCOP(=O)(OCC)c1cc(-c2ccccc2)ccc1N | > 100 | > 100 | > 100 | > 100 | > 100 | > 100 | – | – | – | > 100 | –
11 | O=S1(=O)c2ccccc2NC(=S)N1c1ccccc1 | > 100 | > 100 | > 100 | > 100 | 48.3 | > 100 | > 100 | > 100 | > 100 | > 100 | –
12 | C=C1CC2C(=O)N(c3ccccc3)C(=O)C2CC1n1[nH]c(=O)n(Cc2ccccc2)c1=O (centres undefined) | – | > 100 | > 100 | > 100 | > 100 | > 100 | > 100 | – | > 100 | > 100 | –
13 | COc1ccc(N2C(=O)C3c4[nH]c5ccccc5c4C4C(C)CCCC4C3C2=O)cc1 (centres undefined) | 98.8 | > 100 | > 100 | > 100 | > 77 | > 100 | – | > 100 | > 46.8 | > 96.2 | –
14 | COC(=O)C(=O)C(C(=O)C(=O)Nc1cc([N+](=O)[O-])ccc1C#N)c1nc2ccccc2[nH]c1=O (centres undefined) | – | > 100 | > 100 | > 100 | > 100 | > 100 | > 100 | – | > 100 | > 100 | –
15 | Cc1cn(C2CC(OC(c3ccccc3)(c3ccccc3)c3ccccc3)C(COC(c3ccccc3)(c3ccccc3)c3ccccc3)O2)c(=O)[nH]c1=O (centres undefined) | > 100 | > 100 | > 100 | > 100 | > 100 | > 100 | > 100 | – | > 100 | > 100 | –
16 | Cc1ccc(-n2cc(-c3ccc(Cl)cc3)c3c2N=CN2NC(c4ccco4)=NC32)cc1 (centres undefined) | 26 | 24.5 | – | > 100 | 18.1 | > 100 | > 100 | – | 11.6 | 24 | –
17 | CC1(C)OC(=O)C=C([O-])O1.CC1(C)OC(=O)C=C([O-])O1.O=c1c(O)c(-c2ccc([O-])cc2[O-])oc2cc(O)cc(O)c12.[Ti+4] | – | > 100 | > 100 | > 100 | 60.4 | > 100 | > 100 | – | – | > 100 | 31.6
18 | CCOC(=O)c1c(NC(=S)Nc2ccc(C)cc2)sc2c1CCN(C)C2 | > 100 | > 100 | > 100 | > 100 | 0.0946 | > 100 | > 100 | > 100 | – | > 100 | –
19 | COC(=O)c1sc2ncc3c(c2c1N)CC(C)CC3 (centres undefined) | > 100 | > 100 | > 100 | > 100 | > 100 | > 100 | – | > 100 | > 100 | > 100 | –
20 | O=c1cc(-c2ccccc2F)[nH]c2cc3c(cc12)OCO3 | 3.34 | > 100 | > 18.3 | 0.643 | 17.3 | – | 1.09 | > 100 | > 100 | > 21 | –
21 | CCCC[C@@H]1CCN2C[C@@H](O)[C@@H](O)[C@H]2[C@@H]1O | > 100 | > 100 | > 100 | > 100 | > 100 | > 100 | > 100 | – | – | – | –
22 | CCN(CC(=O)O)CC(=O)O | > 100 | > 100 | > 100 | > 100 | > 100 | > 100 | – | > 100 | – | > 100 | –
23 | N#CC(C#N)=Cc1cccc(Oc2ccccc2)c1 | – | 34.1 | 78.7 | 49.9 | > 94.9 | > 100 | 47.3 | – | 61.3 | 64.6 | –
